{"source": "patent US20250101041A1", "about": "“POSITIVE ALLOSTERIC MODULATORS OF THE MUSCARINIC ACETYLCHOLINE RECEPTOR M4” (Vanderbilt University, priority 2022, published 2025)", "target": "T1, human mAChR M4 (Homo sapiens, UniProt P08173)", "T1 construct": "expressed in transfected cells; host or cells: CHO-K1 (American Type Culture Collection), stably expressing hM4 and Gqi5", "T1 sequence (P08173 1-479)": "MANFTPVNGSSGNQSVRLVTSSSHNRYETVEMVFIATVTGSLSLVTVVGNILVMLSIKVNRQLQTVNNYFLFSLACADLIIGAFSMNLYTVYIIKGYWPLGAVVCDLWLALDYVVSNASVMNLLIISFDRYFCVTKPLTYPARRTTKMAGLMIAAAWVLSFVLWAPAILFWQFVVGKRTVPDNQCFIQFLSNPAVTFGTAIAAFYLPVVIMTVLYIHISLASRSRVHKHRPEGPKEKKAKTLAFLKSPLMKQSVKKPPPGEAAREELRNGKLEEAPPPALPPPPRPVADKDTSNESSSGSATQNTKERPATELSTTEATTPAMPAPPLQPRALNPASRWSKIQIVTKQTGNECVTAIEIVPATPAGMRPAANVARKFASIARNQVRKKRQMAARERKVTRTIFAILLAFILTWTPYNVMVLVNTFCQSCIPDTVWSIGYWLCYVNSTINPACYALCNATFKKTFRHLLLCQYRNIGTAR", "assay": "mAChR M4 cell-based functional assay: calcium mobilization (Fluo-4, FDSS), potentiation of EC20 acetylcholine response in hM4-Gqi5 CHO-K1 cells", "conditions": "human M4; for Emax at 30 µM: CHO-K1, % ACh maximum at 30 μM; for EC50: potentiation of EC20 acetylcholine response, calcium mobilization", "summary_of_the_method": "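CHO-K1 cells stably co-expressing human M4 and chimeric Gqi5, loaded with Fluo-4 AM (50 min, 37 °C). Compounds in 11-point 1:3 series added first; EC20 acetylcholine added at 144 s and again at 230 s. Calcium read on FDSS at 1 Hz; EC50 and Emax from four-parameter logistic fit of potentiated EC20 response.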"}
{"smiles": "Cc1cc2nc(C(F)F)cc(=O)n2nc1N1CCc2ncc(-c3ccnn3C)cc2C1", "note": "[Compound 1-36, 2-(difluoromethyl)-8-methyl-7-(3-(1-methyl-1H-pyrazol-5-yl)-7,8-dihydro-1,6-naphthyridin-6(5H)-yl)-4H-pyrimido[1,2-b]pyridazin-4-one]", "values": [{"measurement": "Emax at 30 µM", "value": 96, "unit": "%"}, {"measurement": "EC50", "value": 76, "unit": "nM"}]}
{"smiles": "Cc1ccc(F)cc1-c1cnc2c(c1)CN(c1nn3c(=O)ccnc3c(C)c1C)CC2", "note": "[Compound 1-194, 7-(3-(5-fluoro-2-methylphenyl)-7,8-dihydro-1,6-naphthyridin-6(5H)-yl)-8,9-dimethyl-4H-pyrimido[1,2-b]pyridazin-4-one]", "values": [{"measurement": "Emax at 30 µM", "value": 83, "unit": "%"}, {"measurement": "EC50", "value": 93, "unit": "nM"}]}
{"smiles": "Cc1cc2nccc(=O)n2nc1N1CCc2ncc(-c3cnc(F)c(Cl)c3)cc2C1", "note": "[Compound 1-326, 7-(3-(5-chloro-6-fluoropyridin-3-yl)-7,8-dihydro-1,6-naphthyridin-6(5H)-yl)-8-methyl-4H-pyrimido[1,2-b]pyridazin-4-one]", "values": [{"measurement": "Emax at 30 µM", "value": 49, "unit": "%"}, {"measurement": "EC50", "value": 1480, "unit": "nM"}]}
{"smiles": "Cc1ccc(-c2cnc3c(c2)CN(c2nn4c(=O)cc(C(=O)NC5(C#N)CC5)nc4cc2C)CC3)cn1", "note": "[Compound 1-76, N-(1-cyanocyclopropyl)-8-methyl-7-(3-(6-methylpyridin-3-yl)-7,8-dihydro-1,6-naphthyridin-6(5H)-yl)-4-oxo-4H-pyrimido[1,2-b]pyridazine-2-carboxamide]", "values": [{"measurement": "Emax at 30 µM", "value": 79, "unit": "%"}, {"measurement": "EC50", "value": 149, "unit": "nM"}]}
{"smiles": "Cc1cc2nccc(=O)n2nc1N1CCc2ncc(Nc3cccc(F)c3C)cc2C1", "note": "[Compound 2-94, 7-(3-((3-fluoro-2-methylphenyl)amino)-7,8-dihydro-1,6-naphthyridin-6(5H)-yl)-8-methyl-4H-pyrimido[1,2-b]pyridazin-4-one]", "values": [{"measurement": "Emax at 30 µM", "value": 84, "unit": "%"}, {"measurement": "EC50", "value": 78, "unit": "nM"}]}
{"smiles": "Cc1cc2nccc(=O)n2nc1N1CCc2ncc(N3CCOc4ncccc43)cc2C1", "note": "[Compound 2-7, 7-(3-(2,3-dihydro-1H-pyrido[2,3-b][1,4]oxazin-1-yl)-7,8-dihydro-1,6-naphthyridin-6(5H)-yl)-8-methyl-4H-pyrimido[1,2-b]pyridazin-4-one]", "values": [{"measurement": "Emax at 30 µM", "value": 84, "unit": "%"}, {"measurement": "EC50", "value": 24, "unit": "nM"}]}
{"smiles": "Cc1cc(=O)n2nc(N3CCc4ncc(-c5cnn(C(F)F)c5)cc4C3)c(C)cc2n1", "note": "[Compound 1-215, 7-(3-(1-(difluoromethyl)-1H-pyrazol-4-yl)-7,8-dihydro-1,6-naphthyridin-6(5H)-yl)-2,8-dimethyl-4H-pyrimido[1,2-b]pyridazin-4-one]", "values": [{"measurement": "Emax at 30 µM", "value": 85, "unit": "%"}, {"measurement": "EC50", "value": 338, "unit": "nM"}]}
{"smiles": "Cc1cc(=O)n2nc(N3CCc4ncc(-c5cn6ccnc6cc5C)cc4C3)c(C)c(C)c2n1", "note": "[Compound 1-131, 2,8,9-trimethyl-7-(3-(7-methylimidazo[1,2-a]pyridin-6-yl)-7,8-dihydro-1,6-naphthyridin-6(5H)-yl)-4H-pyrimido[1,2-b]pyridazin-4-one]", "values": [{"measurement": "Emax at 30 µM", "value": 62, "unit": "%"}, {"measurement": "EC50", "value": 1760, "unit": "nM"}]}
{"smiles": "COc1ccc(-c2cnc3c(c2)CN(c2nn4c(=O)cc(C(F)(F)F)nc4cc2C)CC3)cn1", "note": "[Compound 1-75, 7-(3-(6-methoxypyridin-3-yl)-7,8-dihydro-1,6-naphthyridin-6(5H)-yl)-8-methyl-2-(trifluoromethyl)-4H-pyrimido[1,2-b]pyridazin-4-one]", "values": [{"measurement": "Emax at 30 µM", "value": 46, "unit": "%"}, {"measurement": "EC50", "value": 1250, "unit": "nM"}]}
{"smiles": "CCc1ccccc1-c1cnc2c(c1)CN(c1nn3c(=O)cc(C)nc3c(C)c1C)CC2", "note": "[Compound 1-249, 7-(3-(2-ethylphenyl)-7,8-dihydro-1,6-naphthyridin-6(5H)-yl)-2,8,9-trimethyl-4H-pyrimido[1,2-b]pyridazin-4-one]", "values": [{"measurement": "Emax at 30 µM", "value": 87, "unit": "%"}, {"measurement": "EC50", "value": 1000, "unit": "nM"}]}
{"smiles": "COc1ccc(-c2cnc3c(c2)CN(c2nn4c(=O)cc(C)nc4cc2C)CC3)cc1F", "note": "[Compound 1-216, 7-(3-(3-fluoro-4-methoxyphenyl)-7,8-dihydro-1,6-naphthyridin-6(5H)-yl)-2,8-dimethyl-4H-pyrimido[1,2-b]pyridazin-4-one]", "values": [{"measurement": "Emax at 30 µM", "value": 79, "unit": "%"}, {"measurement": "EC50", "value": 380, "unit": "nM"}]}
{"smiles": "Cc1cc2nccc(=O)n2nc1N1CCc2ncc(Nc3ccccc3F)cc2C1", "note": "[Compound 2-98, 7-(3-((2-fluorophenyl)amino)-7,8-dihydro-1,6-naphthyridin-6(5H)-yl)-8-methyl-4H-pyrimido[1,2-b]pyridazin-4-one]", "values": [{"measurement": "Emax at 30 µM", "value": 90, "unit": "%"}, {"measurement": "EC50", "value": 19, "unit": "nM"}]}
{"smiles": "Cc1cc(=O)n2nc(N3CCc4ncc(-c5cncc(Cl)c5)cc4C3)c(C)c(C)c2n1", "note": "[Compound 1-123, 7-(3-(5-chloropyridin-3-yl)-7,8-dihydro-1,6-naphthyridin-6(5H)-yl)-2,8,9-trimethyl-4H-pyrimido[1,2-b]pyridazin-4-one]", "values": [{"measurement": "Emax at 30 µM", "value": 89, "unit": "%"}, {"measurement": "EC50", "value": 858, "unit": "nM"}]}
{"smiles": "Cc1cc(=O)n2nc(N3CCc4ncc(-c5cnc(Cl)cc5C)cc4C3)c(C)cc2n1", "note": "[Compound 1-207, 7-(3-(6-chloro-4-methylpyridin-3-yl)-7,8-dihydro-1,6-naphthyridin-6(5H)-yl)-2,8-dimethyl-4H-pyrimido[1,2-b]pyridazin-4-one]", "values": [{"measurement": "Emax at 30 µM", "value": 91, "unit": "%"}, {"measurement": "EC50", "value": 315, "unit": "nM"}]}
{"smiles": "COCc1cc(=O)n2nc(N3CCc4ncc(-c5ccccc5C)cc4C3)c(C)cc2n1", "note": "[Compound 1-337, 2-(methoxymethyl)-8-methyl-7-(3-(o-tolyl)-7,8-dihydro-1,6-naphthyridin-6(5H)-yl)-4H-pyrimido[1,2-b]pyridazin-4-one]", "values": [{"measurement": "Emax at 30 µM", "value": 76, "unit": "%"}, {"measurement": "EC50", "value": 331, "unit": "nM"}]}
{"smiles": "COCc1cc(=O)n2nc(N3CCc4ncc(-c5cnccn5)cc4C3)c(C)c(C)c2n1", "note": "[Compound 1-261, 2-(methoxymethyl)-8,9-dimethyl-7-(3-(pyrazin-2-yl)-7,8-dihydro-1,6-naphthyridin-6(5H)-yl)-4H-pyrimido[1,2-b]pyridazin-4-one]", "values": [{"measurement": "Emax at 30 µM", "value": 94, "unit": "%"}, {"measurement": "EC50", "value": 20, "unit": "nM"}]}
{"smiles": "Cc1cc2nccc(=O)n2nc1N1CCc2ncc(-c3cnccc3C#N)cc2C1", "note": "[Compound 1-319, 3-(6-(8-methyl-4-oxo-4H-pyrimido[1,2-b]pyridazin-7-yl)-5,6,7,8-tetrahydro-1,6-naphthyridin-3-yl)isonicotinonitrile]", "values": [{"measurement": "Emax at 30 µM", "value": 34, "unit": "%"}, {"measurement": "EC50", "value": 2640, "unit": "nM"}]}
{"smiles": "Cc1ccc(-c2cnc3c(c2)CN(c2nn4c(=O)cc(C(F)(F)F)nc4c(C)c2C)CC3)cn1", "note": "[Compound 1-84, 8,9-dimethyl-7-(3-(6-methylpyridin-3-yl)-7,8-dihydro-1,6-naphthyridin-6(5H)-yl)-2-(trifluoromethyl)-4H-pyrimido[1,2-b]pyridazin-4-one]", "values": [{"measurement": "Emax at 30 µM", "value": 101, "unit": "%"}, {"measurement": "EC50", "value": 149, "unit": "nM"}]}
{"smiles": "Cc1cc(=O)n2nc(N3CCc4ncc(-c5ccsc5)cc4C3)c(C)c(C)c2n1", "note": "[Compound 1-304, 2,8,9-trimethyl-7-(3-(thiophen-3-yl)-7,8-dihydro-1,6-naphthyridin-6(5H)-yl)-4H-pyrimido[1,2-b]pyridazin-4-one]", "values": [{"measurement": "Emax at 30 µM", "value": 89, "unit": "%"}, {"measurement": "EC50", "value": 169, "unit": "nM"}]}
{"smiles": "Cc1cc2n(n1)CCCN2c1cnc2c(c1)CN(c1nn3c(=O)ccnc3c(C)c1C)CC2", "note": "[Compound 2-35, 8,9-dimethyl-7-(3-(2-methyl-6,7-dihydropyrazolo[1,5-a]pyrimidin-4(5H)-yl)-7,8-dihydro-1,6-naphthyridin-6(5H)-yl)-4H-pyrimido[1,2-b]pyridazin-4-one]", "values": [{"measurement": "Emax at 30 µM", "value": 96, "unit": "%"}, {"measurement": "EC50", "value": 46, "unit": "nM"}]}
{"smiles": "COc1ccsc1-c1cnc2c(c1)CN(c1nn3c(=O)cc(C)nc3c(C)c1C)CC2", "note": "[Compound 1-303, 7-(3-(3-methoxythiophen-2-yl)-7,8-dihydro-1,6-naphthyridin-6(5H)-yl)-2,8,9-trimethyl-4H-pyrimido[1,2-b]pyridazin-4-one]", "values": [{"measurement": "Emax at 30 µM", "value": 96, "unit": "%"}, {"measurement": "EC50", "value": 192, "unit": "nM"}]}
{"smiles": "Cc1cc(N2CCc3ncc(N4CCCn5nccc54)cc3C2)nn2c(=O)ccnc12", "note": "[Compound 2-3, 7-(3-(6,7-dihydropyrazolo[1,5-a]pyrimidin-4(5H)-yl)-7,8-dihydro-1,6-naphthyridin-6(5H)-yl)-9-methyl-4H-pyrimido[1,2-b]pyridazin-4-one]", "values": [{"measurement": "Emax at 30 µM", "value": 71, "unit": "%"}, {"measurement": "EC50", "value": 173, "unit": "nM"}]}
{"smiles": "Cc1cc(F)ccc1-c1cnc2c(c1)CN(c1nn3c(=O)ccnc3cc1C)CC2", "note": "[Compound 1-443, 7-(3-(4-fluoro-2-methylphenyl)-7,8-dihydro-1,6-naphthyridin-6(5H)-yl)-8-methyl-4H-pyrimido [1,2-b]pyridazin-4-one]", "values": [{"measurement": "Emax at 30 µM", "value": 99, "unit": "%"}, {"measurement": "EC50", "value": 210, "unit": "nM"}]}
{"smiles": "Cc1nc(-c2cccc(Nc3cnc4c(c3)CN(c3nn5c(=O)ccnc5cc3C)CC4)c2)cs1", "note": "[Compound 2-83, 8-methyl-7-(3-((3-(2-methylthiazol-4-yl)phenyl)amino)-7,8-dihydro-1,6-naphthyridin-6(5H)-yl)-4H-pyrimido[1,2-b]pyridazin-4-one]", "values": [{"measurement": "Emax at 30 µM", "value": 59, "unit": "%"}, {"measurement": "EC50", "value": 639, "unit": "nM"}]}
{"smiles": "COCc1cc(=O)n2nc(N3CCc4ncc(-c5cnc(Cl)cc5C)cc4C3)c(C)cc2n1", "note": "[Compound 1-357, 7-(3-(6-chloro-4-methylpyridin-3-yl)-7,8-dihydro-1,6-naphthyridin-6(5H)-yl)-2-(methoxymethyl)-8-methyl-4H-pyrimido[1,2-b]pyridazin-4-one]", "values": [{"measurement": "Emax at 30 µM", "value": 86, "unit": "%"}, {"measurement": "EC50", "value": 383, "unit": "nM"}]}
{"smiles": "Cc1cc2nccc(=O)n2nc1N1CCc2ncc(Nc3ccc(C4CC4)nc3)cc2C1", "note": "[Compound 2-125, 7-(3-((6-cyclopropylpyridin-3-yl)amino)-7,8-dihydro-1,6-naphthyridin-6(5H)-yl)-8-methyl-4H-pyrimido[1,2-b]pyridazin-4-one]", "values": [{"measurement": "Emax at 30 µM", "value": 58, "unit": "%"}]}
